Reference: ChEMBL document CHEMBL1145312, “Structure-activity relationships of triazolopyridine oxazole p38 inhibitors: identification of candidates for clinical development” (Bioorg Med Chem Lett, 2006)
Converted amounts (≈) assume the structure as drawn.

Experiments:
[1] = biological target: Mitogen-activated protein kinase 14 (Homo sapiens, UniProt Q16539); assay: Inhibition of p38alpha
[2] = Hepatocyte extraction ratio in human; assay type: ADME, cell-based; details: hepatocytes
Monocyte = assay: Inhibition of LPS-induced TNFalpha production in human monocytes; assay type: functional, cell-based
Homo sapiens = species on record: Homo sapiens; assay: Inhibition of LPS-induced TNFalpha production in human whole blood; assay type: functional, organism-based
[3] = Permeability from basolateral to apical side of Caco-2 cell membrane; assay type: ADME, cell-based; details: human
[4] = Permeability from apical to basolateral side of Caco-2 cell membrane; assay type: ADME, cell-based; details: human
[5] = Plasma clearance in rat; assay type: ADME, organism-based
[6] = Bioavailability in rat; assay type: ADME, organism-based; details: in vivo
[7] = Volume of distribution in monkey; assay type: ADME, organism-based, Macaca mulatta; details: rhesus monkey, in vivo; read-out: Vdss
[8] = Half life in monkey; assay type: ADME, organism-based, Macaca mulatta; details: rhesus monkey, in vivo
[9] = Half life in rat; assay type: ADME, organism-based; details: in vivo
Rattus norvegicus = species on record: Rattus norvegicus; assay: Inhibition of LPS-induced TNFalpha release in rat; assay type: functional
[10] = Volume of distribution in rat; assay type: ADME, organism-based; details: in vivo, read-out: Vdss
[11] = Bioavailability in monkey; assay type: ADME, organism-based, Macaca mulatta; details: rhesus monkey, in vivo
[12] = Solubility in PBS buffer at ph 6.5; assay type: physicochemical
[13] = Plasma clearance in monkey; assay type: ADME, organism-based, Macaca mulatta; details: rhesus monkey
[14] = Hepatocyte microsomal extraction ratio in human; details: hepatic microsomes

Mitogen-activated protein kinase 14, sequence (Q16539 whole entry): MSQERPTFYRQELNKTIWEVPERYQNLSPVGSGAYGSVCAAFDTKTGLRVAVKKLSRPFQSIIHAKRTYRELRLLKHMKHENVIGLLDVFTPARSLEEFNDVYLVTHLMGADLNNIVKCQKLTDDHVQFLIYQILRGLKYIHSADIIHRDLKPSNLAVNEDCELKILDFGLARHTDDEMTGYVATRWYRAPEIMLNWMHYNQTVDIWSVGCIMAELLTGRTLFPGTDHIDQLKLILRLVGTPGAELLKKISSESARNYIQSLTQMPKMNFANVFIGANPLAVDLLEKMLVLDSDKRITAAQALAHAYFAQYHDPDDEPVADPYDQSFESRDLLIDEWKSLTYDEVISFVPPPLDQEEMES

Structure (SMILES)	IC50 [1]	hepatic extraction ratio [2]	IC50 (Monocyte)	IC50 (Homo sapiens)	other results
CC1(c2nnc3ccc(-c4ocnc4-c4ccc(F)cc4F)cn23)CC1	0.7 nM	> 0.5	30 nM	245 nM	
Fc1ccc(-c2ncoc2-c2ccc3nnc(C4CC4)n3c2)cc1	10.9 nM	> 0.5	186 nM	4650 nM	
Cc1cc(-c2ncoc2-c2ccc3nnc(C(C)C)n3c2)ccc1F	6.6 nM	> 0.5	11.6 nM	260 nM	
CC(C)c1nnc2ccc(-c3ocnc3-c3ccc(F)c(Cl)c3)cn12	12.4 nM		47.2 nM	631 nM	clearance [5]: 17 mL/min/kg; bioavailability [6]: 9.4%; Vd [7]: 1.4 L/kg; half-life [8]: 4.7 h; half-life [9]: 0.9 h; ED50 (Rattus norvegicus): 0.5 mg/kg; Vd [10]: 1.3 L/kg; bioavailability [11]: 31%; solubility [12]: 2.8 µg/mL (≈ 7.85 µM); clearance [13]: 5.7 mL/min/kg
Fc1ccc(-c2ncoc2-c2ccc3nnc(-c4ccccc4)n3c2)cc1	12.3 nM	> 0.5	90 nM	5350 nM	
CC(C)c1nnc2ccc(-c3cnoc3-c3cc(F)ccc3F)cn12	33.2 nM		63 nM		Papp B→A [3]: 29 ×10⁻⁶ cm/s; Papp A→B [4]: 41 ×10⁻⁶ cm/s
Fc1ccc(-c2ncoc2-c2ccc3nnc(N4CCCC4)n3c2)cc1	15.4 nM	> 0.5	52 nM	935 nM	

More lines, in order of falling IC50 [1], values ahead:

IC50 [1]	hepatic extraction ratio [2]	IC50 (Monocyte)	IC50 (Homo sapiens)	Structure (SMILES)	other results
6.2 nM		24.5 nM	297 nM	CC(C)c1nnc2ccc(-c3[nH]cnc3-c3cc(F)ccc3F)cn12	Papp B→A [3]: 32 ×10⁻⁶ cm/s; Papp A→B [4]: 1 ×10⁻⁶ cm/s
5.4 nM	> 0.5	40 nM	1710 nM	CCNc1nnc2ccc(-c3ocnc3-c3ccccc3)cn12	
4.6 nM	> 0.5	10 nM	265 nM	CC(C)c1nnc2ccc(-c3ocnc3-c3ccc(F)cc3F)cn12	
2.2 nM	> 0.5	20 nM	600 nM	CC(C)c1nnc2ccc(-c3ocnc3-c3ccc(Cl)cc3F)cn12	hepatic extraction ratio [14]: < 0.3
0.4 nM	> 0.5	10 nM	697 nM	CCOc1ccccc1-c1nnc2ccc(-c3ocnc3-c3ccc(F)cc3)cn12	
